Laboratory results from publication PMC8196580, “Identification of Kaurane-Type Diterpenes as Inhibitors of Leishmania Pteridine Reductase I” (Molecules, 2021).
Like-named read-outs stand apart in the source and are kept apart here.

Columns and labels:
L. major [1] = assay: ChEMBL dataset of pIC50 values against L. major used for the RF model (Table S1); format: cell-based, Leishmania major; note: call rule not given here
L. major [2] = system: L. major; parameters: method as in ChEMBL; conditions: ref ChEMBL, cited from earlier work
[3] = Active/Inactive class assigned to ChemBL structures for Random forest model construction (Table S1)
[4] = ChemBL structures with pIC50 values used for Random forest model construction (Table S1)
[5] = Active/Inactive class assigned to the ChEMBL pIC50 value for Random forest model construction, ref ChEMBL
[6] = ChemBL structures with pIC50 values used for Random forest model construction, L. major

O=[N+]([O-])c1ccc2[nH]c(-c3c[nH]c4ccccc34)nc2c1 [CHEMBL2297905]
Outcome (L. major [1]; [3]): Active
pIC50 Value (L. major [2]; [4]): 5.65

O=[N+]([O-])c1ccc2nc(-c3ccc[nH]3)[nH]c2c1 [CHEMBL2297906]
Outcome (L. major [1]; [3]): Active
pIC50 Value (L. major [2]; [4]): 5.40

O=[N+]([O-])c1ccc2nc(-c3cccs3)[nH]c2c1 [CHEMBL2297907]
Outcome (L. major [1]; [3]): Active
pIC50 Value (L. major [2]; [4]): 5.48

COc1cccc(-c2nc3ccccc3[nH]2)c1 [CHEMBL2297908]
Outcome (L. major [1]; [3]): Active
pIC50 Value (L. major [2]; [4]): 5.46

CC(C)c1ccc(-c2nc3ccccc3[nH]2)cc1 [CHEMBL2298014]
Outcome (L. major [1]; [3]): Active
pIC50 Value (L. major [2]; [4]): 5.57

c1ccc2[nH]c(-c3c[nH]c4ccccc34)nc2c1 [CHEMBL2298015]
Outcome (L. major [1]; [3]): Active
pIC50 Value (L. major [2]; [4]): 5.43

c1c[nH]c(-c2nc3ccccc3[nH]2)c1 [CHEMBL2298016]
Outcome (L. major [1]; [3]): Active
pIC50 Value (L. major [2]; [4]): 5.46

Cc1ccc(-c2nc3ccccc3[nH]2)o1 [CHEMBL2298017]
Outcome (L. major [1]; [3]): Active
pIC50 Value (L. major [2]; [4]): 5.37

COc1cccc(-c2nc3ccc([N+](=O)[O-])cc3[nH]2)c1 [CHEMBL2298018]
Outcome (L. major [1]; [3]): Active
pIC50 Value (L. major [2]; [4]): 5.52

CC[C@H](CO)Nc1nc(NCc2cccc(OC)c2O)c2ncn(C(C)C)c2n1 [CHEMBL2349189]
Outcome (L. major [1]; [5]): Inactive
pIC50 Value (L. major [2]; [6]): 4.01

NCCOc1cc(C(=O)Nc2cc(OCCN)c3ccccc3n2)nc(C(=O)Nc2cc(OCCN)c3ccccc3n2)c1 [CHEMBL2349416]
Outcome (L. major [1]; [3]): Active
pIC50 Value (L. major [2]; [4]): 5.30

CC(=O)C1=C(C)NC(=S)NC1c1ccccc1 (stereo not shown) [CHEMBL2359517]
Outcome (L. major [1]; [3]): Active
pIC50 Value (L. major [2]; [4]): 5.50

COc1ccccc1C(=O)N/N=C/c1ccccn1 [CHEMBL2382029]
Outcome (L. major [1]; [5]): Inactive
pIC50 Value (L. major [2]; [6]): 4.22

COc1ccccc1C(=O)N/N=C/c1ccncc1 [CHEMBL2382030]
Outcome (L. major [1]; [5]): Inactive
pIC50 Value (L. major [2]; [6]): 4.12

COC(=O)c1ccc(/C=N/NC(=O)c2ccccc2OC)cc1 [CHEMBL2382031]
Outcome (L. major [1]; [5]): Inactive
pIC50 Value (L. major [2]; [6]): 4.81

COc1ccccc1C(=O)N/N=C/c1ccc(Br)c(F)c1 [CHEMBL2382032]
Outcome (L. major [1]; [5]): Inactive
pIC50 Value (L. major [2]; [6]): 4.11

COc1ccccc1C(=O)N/N=C/c1cc(O)c(O)c(O)c1 [CHEMBL2382033]
Outcome (L. major [1]; [5]): Inactive
pIC50 Value (L. major [2]; [6]): 4.50

COc1ccccc1C(=O)N/N=C/c1ccc(O)c(O)c1 [CHEMBL2382034]
Outcome (L. major [1]; [3]): Active
pIC50 Value (L. major [2]; [4]): 5.48

COc1ccccc1C(=O)N/N=C/c1cc(O)cc(O)c1 [CHEMBL2382035]
Outcome (L. major [1]; [5]): Inactive
pIC50 Value (L. major [2]; [6]): 4.55

COc1ccccc1C(=O)N/N=C/c1cccc(O)c1 [CHEMBL2382036]
Outcome (L. major [1]; [5]): Inactive
pIC50 Value (L. major [2]; [6]): 4.48

COc1ccccc1C(=O)N/N=C/c1ccccc1O [CHEMBL2382037]
Outcome (L. major [1]; [5]): Inactive
pIC50 Value (L. major [2]; [6]): 4.45

COc1ccc(O)c(/C=N/NC(=O)c2ccccc2OC)c1 [CHEMBL2382038]
Outcome (L. major [1]; [5]): Inactive
pIC50 Value (L. major [2]; [6]): 4.00

COc1ccc(/C=N/NC(=O)c2ccccc2OC)cc1Br [CHEMBL2382039]
Outcome (L. major [1]; [5]): Active
pIC50 Value (L. major [2]; [6]): 5.12

COc1ccc(/C=N/NC(=O)c2ccccc2OC)cc1OC [CHEMBL2382040]
Outcome (L. major [1]; [5]): Inactive
pIC50 Value (L. major [2]; [6]): 4.88

COc1ccc(/C=N/NC(=O)c2ccccc2OC)cc1 [CHEMBL2382041]
Outcome (L. major [1]; [5]): Inactive
pIC50 Value (L. major [2]; [6]): 4.40

COc1ccccc1C(=O)N/N=C/c1cccnc1 [CHEMBL2382042]
Outcome (L. major [1]; [3]): Active
pIC50 Value (L. major [2]; [4]): 5.71

COc1ccccc1C(=O)N/N=C/c1cccs1 [CHEMBL2382043]
Outcome (L. major [1]; [3]): Active
pIC50 Value (L. major [2]; [4]): 5.60

COc1ccccc1C(=O)N/N=C/c1ccc([N+](=O)[O-])cc1 [CHEMBL2382044]
Outcome (L. major [1]; [5]): Inactive
pIC50 Value (L. major [2]; [6]): 4.50

COc1ccccc1C(=O)N/N=C/c1ccc(Cl)cc1 [CHEMBL2382045]
Outcome (L. major [1]; [5]): Inactive
pIC50 Value (L. major [2]; [6]): 4.16

COc1ccccc1C(=O)N/N=C/c1cccc(O)c1O [CHEMBL2382046]
Outcome (L. major [1]; [5]): Inactive
pIC50 Value (L. major [2]; [6]): 4.17

COc1ccccc1C(=O)N/N=C/c1cc(O)ccc1O [CHEMBL2382047]
Outcome (L. major [1]; [5]): Inactive
pIC50 Value (L. major [2]; [6]): 4.46

COc1ccccc1C(=O)N/N=C/c1ccc(O)cc1O [CHEMBL2382048]
Outcome (L. major [1]; [5]): Inactive
pIC50 Value (L. major [2]; [6]): 4.05

COc1ccccc1C(=O)N/N=C/c1ccc(O)cc1 [CHEMBL2382049]
Outcome (L. major [1]; [5]): Inactive
pIC50 Value (L. major [2]; [6]): 4.24

COc1ccc(/C=N/NC(=O)c2ccccc2OC)c(O)c1 [CHEMBL2382050]
Outcome (L. major [1]; [5]): Inactive
pIC50 Value (L. major [2]; [6]): 4.88

COc1ccc(/C=N/NC(=O)c2ccccc2OC)cc1O [CHEMBL2382051]
Outcome (L. major [1]; [5]): Inactive
pIC50 Value (L. major [2]; [6]): 4.34

COc1ccccc1C(=O)N/N=C/c1ccc(OC)c(O)c1I [CHEMBL2382052]
Outcome (L. major [1]; [5]): Inactive
pIC50 Value (L. major [2]; [6]): 4.20

COc1cc(/C=N/NC(=O)c2ccccc2OC)cc(OC)c1 [CHEMBL2382053]
Outcome (L. major [1]; [5]): Inactive
pIC50 Value (L. major [2]; [6]): 4.27

C/C=C/C=C/c1nc2ccccc2n2cccc12 [CHEMBL3260206]
Outcome (L. major [1]; [3]): Active
pIC50 Value (L. major [2]; [4]): 5.33

C/C=C/C=C/c1nc2cc(OC)ccc2n2cccc12 [CHEMBL3260207]
Outcome (L. major [1]; [3]): Active
pIC50 Value (L. major [2]; [4]): 5.52

C/C=C/C=C/c1nc2ccc(OC)cc2n2cccc12 [CHEMBL3260208]
Outcome (L. major [1]; [3]): Active
pIC50 Value (L. major [2]; [4]): 5.57

C/C=C/C=C/c1nc2cccc(OC)c2n2cccc12 [CHEMBL3260209]
Outcome (L. major [1]; [3]): Active
pIC50 Value (L. major [2]; [4]): 5.48

CCC/C=C/C=C/c1nc2ccccc2n2cccc12 [CHEMBL3260210]
Outcome (L. major [1]; [3]): Active
pIC50 Value (L. major [2]; [4]): 5.41

CCC/C=C/C=C/c1nc2cc(OC)ccc2n2cccc12 [CHEMBL3260211]
Outcome (L. major [1]; [3]): Active
pIC50 Value (L. major [2]; [4]): 5.55

CCC/C=C/C=C/c1nc2ccc(OC)cc2n2cccc12 [CHEMBL3260212]
Outcome (L. major [1]; [5]): Active
pIC50 Value (L. major [2]; [6]): 5.13

CCC/C=C/C=C/c1nc2cccc(OC)c2n2cccc12 [CHEMBL3260213]
Outcome (L. major [1]; [3]): Active
pIC50 Value (L. major [2]; [4]): 5.41

CCCC/C=C/C=C/c1nc2ccccc2n2cccc12 [CHEMBL3260214]
Outcome (L. major [1]; [3]): Active
pIC50 Value (L. major [2]; [4]): 5.43

CCCC/C=C/C=C/c1nc2cc(OC)ccc2n2cccc12 [CHEMBL3260215]
Outcome (L. major [1]; [3]): Active
pIC50 Value (L. major [2]; [4]): 5.60

CCCC/C=C/C=C/c1nc2ccc(OC)cc2n2cccc12 [CHEMBL3260216]
Outcome (L. major [1]; [3]): Active
pIC50 Value (L. major [2]; [4]): 5.36

CCCC/C=C/C=C/c1nc2cccc(OC)c2n2cccc12 [CHEMBL3260217]
Outcome (L. major [1]; [5]): Active
pIC50 Value (L. major [2]; [6]): 5.24

C/C=C/C=C/C=C/c1nc2ccccc2n2cccc12 [CHEMBL3260218]
Outcome (L. major [1]; [3]): Active
pIC50 Value (L. major [2]; [4]): 5.92

C/C=C/C=C/c1nc2ccccc2n2ccc(OCC)c12 [CHEMBL3260219]
Outcome (L. major [1]; [3]): Active
pIC50 Value (L. major [2]; [4]): 5.82

Cc1cccc2nc(-c3ccc(C(=O)N/N=C/c4cccc(O)c4O)cc3)[nH]c12 [CHEMBL3317782]
Outcome (L. major [1]; [5]): Inactive
pIC50 Value (L. major [2]; [6]): 4.42

COc1ccc2c(c1)C=C(C(=O)/C=C/c1ccc(Cl)c(Cl)c1)CO2 [CHEMBL3329269]
Outcome (L. major [1]; [3]): Active
pIC50 Value (L. major [2]; [4]): 6.00

COc1ccc2c(c1)C=C(/C=C/C(=O)c1ccc(Cl)c(Cl)c1)CO2 [CHEMBL3329270]
Outcome (L. major [1]; [3]): Active
pIC50 Value (L. major [2]; [4]): 6.00

CC(C)C1=CC(=O)C2=C(CC[C@H]3C(C)(C)CCC[C@]23C)C1=O [CHEMBL3355361]
Outcome (L. major [1]; [3]): Active
pIC50 Value (L. major [2]; [4]): 6.74

CC[C@H](CO)Nc1nc(NCc2cccc(C)c2O)c2ncn(C(C)C)c2n1 [CHEMBL3423079]
Outcome (L. major [1]; [5]): Inactive
pIC50 Value (L. major [2]; [6]): 4.70

CC[C@H](CO)Nc1nc(NCc2cc(C)ccc2O)c2ncn(C(C)C)c2n1 [CHEMBL3423080]
Outcome (L. major [1]; [3]): Active
pIC50 Value (L. major [2]; [4]): 5.64

CC[C@H](CO)Nc1nc(NCc2ccc(Br)cc2)c2ncn(C(C)C)c2n1 [CHEMBL3423090]
Outcome (L. major [1]; [5]): Inactive
pIC50 Value (L. major [2]; [6]): 4.71

CCN(CC)NC(=O)c1ccc(OCc2ccccc2)cc1 [CHEMBL3613383]
Outcome (L. major [1]; [5]): Inactive
pIC50 Value (L. major [2]; [6]): 4.68
